Laboratory results: US20220290095A1, “Bifidobacterium breve CCFM1025, Food Fermented Thereby and Application Thereof” (Jiangnan University, priority 2018, published 2022)

Columns and labels:
[1] = tested on: depressed mice (chronic unpredictable stress depression mouse model); experiment: Depression-like behaviors of depressed mice (behavioral tests overall); format: in vivo, C57BL/6J mice
Experimental: (§1) 32 6-week-old male C57BL/6J mice were selected. After one week of adaptation to the environment, the mice were randomly divided into four groups according to body weight: a control group, a model group, a fluoxetine intervention group, and a CCFM1025 intervention group, each containing 8 mice.
(§2) Chronic unpredictable stress depression mouse model: 1-2 kinds of stimuli were randomly performed every day, and the performance time of stimuli every day was determined randomly to avoid the circadian rhythm. Each method was used for not more than three times, and the stimuli were performed for five weeks. The stimuli include: (1) fasting for 24 h; (2) water deprivation+empty bottle stimulus for 24 h; (3) tail pinching for 3 min; (4) wet padding for 24 h; (5) immobilization for 1-2 h; (6) […] for 24 h; (7) continuous lighting for 24 h; (8) no padding for 24 h; (9) forced swim for 15 min; and (10) separation for 24 h.
Lactic acid bacteria gavage: the activated second generation of Bifidobacterium CCFM1025 was taken and cultured at 37° C. for 24 h, and the bacteria were collected after centrifugation at 4° C. and 8000 r/min for 3 min. The supernatant was discarded and the bacteria were resuspended with 5% sterilized skim milk to make the concentration of lactic acid bacteria reach 5×10^9 CFU/mL. The gavage volume is 0.2 mL/mouse/day. […]

5-HT in the serum = experiment: 5-HT in serum of depressed mice (ELISA); format: in vivo, C57BL/6J mice; conditions: concluded from serum 5-HT, FIG. 4
Experimental: as §1, §2
Lactic acid bacteria gavage: the activated second generation of Bifidobacterium CCFM1025 was taken and cultured at 37° C. for 24 h, and the bacteria were collected after centrifugation at 4° C. and 8000 r/min for 3 min. […]
The serum collected in Example 3 was taken and the content of 5-HT in the serum was measured using an ELISA kit. […]

Structure (SMILES): CNCCC(Oc1ccc(C(F)(F)F)cc1)c1ccccc1 (centres unmarked) [fluoxetine]
- depression-like behaviors / antidepressant effect [1]: has an antidepressant effect
- intestinal peristalsis / intestinal function (5-HT in the serum): cannot improve the intestinal function
